Assay results as given in PubChem BioAssay (NCI).
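Values below derive from 48-hour exposures of cells grown in 96-well plates, with endpoints linearly interpolated between the two concentrations bracketing the appropriate inhibition level. TGI is the concentration that stops growth completely.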

How the values were obtained:
Experiment in all cases: DTP human tumour cell line panel, 48 h
[1] = system: NCI-H460 lung
[2] = system: SN12C renal
[3] = system: 786-0 renal
[4] = system: MDA-N
[5] = system: IGROV1 ovarian
[6] = system: U251 CNS
[7] = system: HCC-2998 colon
[8] = system: PC-3 prostate
[9] = system: RXF 393 renal
[10] = system: EKVX NSCLC
[11] = system: MDA-MB-435
[12] = system: RPMI-8226 leukemia
[13] = system: SK-MEL-5 melanoma
[14] = system: ACHN renal
[15] = system: OVCAR-5 ovarian
[16] = system: SNB-19 CNS
[17] = system: UACC-62 melanoma
[18] = system: OVCAR-8 ovarian
[19] = system: NCI-H522 lung
[20] = system: SK-MEL-28 melanoma
[21] = system: UACC-257 melanoma
[22] = system: OVCAR-4 ovarian
[23] = system: HOP-92 NSCLC
[24] = system: NCI/ADR-RES ovarian
[25] = system: SF-295 CNS
[26] = system: HS 578T breast
[27] = system: K-562 leukemia
[28] = system: SK-OV-3 ovarian
[29] = system: BT-549 breast
[30] = system: HOP-62 NSCLC
[31] = system: T-47D breast
[32] = system: HL-60(TB) leukemia
[33] = system: TK-10 renal
[34] = system: UO-31 renal
[35] = system: A549 NSCLC
[36] = system: OVCAR-3 ovarian
[37] = system: MALME-3M melanoma
[38] = system: CAKI-1 renal
[39] = system: NCI-H23 lung
[40] = system: HCT-15 colon
[41] = system: CCRF-CEM leukemia
[42] = system: MCF7 breast
[43] = system: M14 melanoma
[44] = system: COLO 205 colon
[45] = system: MDA-MB-231 breast
[46] = system: HT29 colon
[47] = system: HCT-116 colon
[48] = system: MOLT-4 leukemia
[49] = system: SF-268 CNS
[50] = system: LOX IMVI melanoma
[51] = system: SW-620 colon
[52] = system: NCI-H226 lung
[53] = system: KM12 colon
[54] = system: A498 renal
[55] = system: DU-145 prostate
[56] = system: SNB-75 CNS
[57] = system: SK-MEL-2 melanoma
[58] = system: SF-539 CNS

`Clc1ccc(CSC2=NCCN2)cc1Cl` showed a TGI [1] of 37.3 µM, a TGI [2] of 35.8 µM and a TGI [3] of 23.8 µM. For the same molecule, the TGI [4] was 25 µM, the TGI [5] was 39.1 µM and the TGI [6] was 27 µM. The TGI [7] was 30.1 µM, the TGI [8] was 23.7 µM and the TGI [9] was 28.4 µM. The TGI [10] was 24.3 µM, the TGI [11] was 30.5 µM and the TGI [12] was 36.3 µM. The TGI [13] was 26 µM, the TGI [14] was 30.9 µM and the TGI [15] was 53.3 µM. For the same molecule, the TGI [16] was greater than 100 µM, the TGI [17] was 30.5 µM and the TGI [18] was 40 µM. For the same molecule, the TGI [19] was 21.5 µM, the TGI [20] was 35.1 µM and the TGI [21] was 24.1 µM. For the same molecule, the TGI [22] was 27 µM, the TGI [23] was 13.8 µM and the TGI [24] was 49.8 µM. It also gave a TGI [25] greater than 100 µM, a TGI [26] of 53.7 µM and a TGI [27] of 88.8 µM. For the same molecule, the TGI [28] was 49.5 µM, the TGI [29] was 40.2 µM and the TGI [30] was 47.1 µM. For the same molecule, the TGI [31] was 27 µM, the TGI [32] was 27.7 µM and the TGI [33] was 31.5 µM. For the same molecule, the TGI [34] was 23.6 µM, the TGI [35] was 98.9 µM and the TGI [36] was 30.3 µM. For the same molecule, the TGI [37] was 28.6 µM, the TGI [38] was 23.5 µM and the TGI [39] was 35.8 µM. For the same molecule, the TGI [40] was 31.9 µM, the TGI [41] was 22.3 µM and the TGI [42] was 25.2 µM. The TGI [43] was 30.6 µM, the TGI [44] was 37.9 µM and the TGI [45] was 29.2 µM. The TGI [46] was 28.4 µM, the TGI [47] was 28.7 µM and the TGI [48] was 35.9 µM. For the same molecule, the TGI [49] was 42.5 µM, the TGI [50] was 30.1 µM and the TGI [51] was 35.4 µM. For the same molecule, the TGI [52] was 42.3 µM, the TGI [53] was 33.5 µM and the TGI [54] was 52.8 µM. For the same molecule, the TGI [55] was 29.7 µM.
For `O=[N+]([O-])c1cccc(-c2ncnc(-c3cccc([N+](=O)[O-])c3)n2)c1`, the TGI [2] was greater than 100 µM, the TGI [3] was greater than 100 µM and the TGI [4] was greater than 100 µM. It also gave a TGI [5] greater than 100 µM, a TGI [6] of 59.6 µM and a TGI [7] greater than 100 µM. For the same molecule, the TGI [8] was greater than 100 µM, the TGI [9] was 62.8 µM and the TGI [56] was greater than 100 µM. For the same molecule, the TGI [10] was greater than 100 µM, the TGI [11] was greater than 100 µM and the TGI [12] was greater than 100 µM. For the same molecule, the TGI [13] was greater than 100 µM, the TGI [15] was greater than 100 µM and the TGI [17] was 95.2 µM. The TGI [18] was greater than 100 µM, the TGI [19] was greater than 100 µM and the TGI [20] was greater than 100 µM. The TGI [21] was greater than 100 µM, the TGI [23] was 57.2 µM and the TGI [24] was greater than 100 µM. For the same molecule, the TGI [25] was greater than 100 µM, the TGI [26] was greater than 100 µM and the TGI [27] was greater than 100 µM. For the same molecule, the TGI [28] was greater than 100 µM, the TGI [29] was greater than 100 µM and the TGI [30] was 37.5 µM. For the same molecule, the TGI [31] was greater than 100 µM, the TGI [32] was greater than 100 µM and the TGI [33] was greater than 100 µM. For the same molecule, the TGI [34] was greater than 100 µM, the TGI [57] was greater than 100 µM and the TGI [35] was greater than 100 µM. For the same molecule, the TGI [36] was greater than 100 µM, the TGI [37] was greater than 100 µM and the TGI [38] was 93.3 µM. It also gave a TGI [39] greater than 100 µM, a TGI [42] greater than 100 µM and a TGI [43] greater than 100 µM. For the same molecule, the TGI [44] was greater than 100 µM, the TGI [45] was 98.2 µM and the TGI [46] was greater than 100 µM. It also gave a TGI [47] greater than 100 µM, a TGI [48] greater than 100 µM and a TGI [49] greater than 100 µM. The TGI [50] was greater than 100 µM, the TGI [51] was greater than 100 µM and the TGI [52] was greater than 100 µM. The TGI [53] was greater than 100 µM, the TGI [54] was greater than 100 µM and the TGI [55] was greater than 100 µM.
`CN(CCNC(=O)c1nn(-c2ccccc2)c2c1ccc1ccccc12)CCNC(=O)c1nn(-c2ccccc2)c2c1ccc1ccccc12` showed a TGI [1] of 2.99 µM, a TGI [2] of 3.46 µM and a TGI [3] of 3.04 µM. The TGI [4] was 3.19 µM, the TGI [5] was 5.27 µM and the TGI [6] was 3.05 µM. For the same molecule, the TGI [7] was 2.92 µM, the TGI [8] was 7.08 µM and the TGI [9] was 3.34 µM. For the same molecule, the TGI [56] was 5.55 µM, the TGI [10] was 4.41 µM and the TGI [11] was 4 µM. For the same molecule, the TGI [12] was 1.8 µM, the TGI [13] was 3.1 µM and the TGI [14] was 5.51 µM. The TGI [15] was 40.5 µM, the TGI [16] was 8.11 µM and the TGI [17] was 3.37 µM. It also gave a TGI [18] of 3.29 µM, a TGI [19] of 3.6 µM and a TGI [20] of 3.23 µM. The TGI [21] was 3.22 µM, the TGI [22] was 22.1 µM and the TGI [23] was 3.79 µM. For the same molecule, the TGI [24] was 9.15 µM, the TGI [58] was 3.07 µM and the TGI [25] was 3.21 µM. It also gave a TGI [26] of 4.22 µM, a TGI [28] of 7.28 µM and a TGI [29] of 21.8 µM. It also gave a TGI [30] of 3.38 µM, a TGI [31] of 6.95 µM and a TGI [32] of 3.94 µM. It also gave a TGI [33] of 3.37 µM, a TGI [34] of 3.78 µM and a TGI [57] of 3.5 µM. For the same molecule, the TGI [35] was 10.6 µM, the TGI [36] was 4.16 µM and the TGI [37] was 3.84 µM. It also gave a TGI [38] of 15.6 µM, a TGI [39] of 6.78 µM and a TGI [40] of 3.39 µM. The TGI [41] was 9.92 µM, the TGI [42] was 3.91 µM and the TGI [43] was 3.85 µM. The TGI [44] was 2.99 µM, the TGI [45] was 2.74 µM and the TGI [46] was 15.8 µM. For the same molecule, the TGI [47] was 2.87 µM, the TGI [48] was 1.72 µM and the TGI [49] was 4.6 µM. For the same molecule, the TGI [50] was 3.18 µM, the TGI [51] was 4.46 µM and the TGI [52] was 7.7 µM. For the same molecule, the TGI [53] was 6.22 µM, the TGI [54] was 5.29 µM and the TGI [55] was 70.2 µM.
